Reference: PubChem BioAssay (NCI)
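Following 48 hours of exposure in 96-well plates, responses at five concentrations were used to interpolate endpoints linearly. At the GI50, growth is halved. At the TGI there is no net growth.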

Key:
Test in all cases: growth of human tumour cells (NCI), 48 h
[1] = tested on: K-562 leukemia
[2] = tested on: PC-3 prostate
[3] = tested on: NCI-H460 lung
[4] = tested on: LOX IMVI melanoma
[5] = tested on: HCT-116 colon
[6] = tested on: HT29 colon
[7] = tested on: MDA-MB-435
[8] = tested on: EKVX NSCLC
[9] = tested on: SNB-75 CNS
[10] = tested on: U251 CNS
[11] = tested on: UACC-62 melanoma
[12] = tested on: ACHN renal
[13] = tested on: SK-MEL-5 melanoma
[14] = tested on: CAKI-1 renal
[15] = tested on: HCC-2998 colon
[16] = tested on: HCT-15 colon
[17] = tested on: OVCAR-8 ovarian
[18] = tested on: T-47D breast
[19] = tested on: 786-0 renal
[20] = tested on: SF-539 CNS
[21] = tested on: KM12 colon
[22] = tested on: MDA-MB-231 breast
[23] = tested on: NCI-H23 lung
[24] = tested on: IGROV1 ovarian
[25] = tested on: SK-MEL-28 melanoma
[26] = tested on: SK-MEL-2 melanoma
[27] = tested on: SF-295 CNS
[28] = tested on: CCRF-CEM leukemia
[29] = tested on: BT-549 breast
[30] = tested on: COLO 205 colon
[31] = tested on: NCI/ADR-RES ovarian
[32] = tested on: OVCAR-3 ovarian
[33] = tested on: M14 melanoma
[34] = tested on: NCI-H226 lung
[35] = tested on: TK-10 renal
[36] = tested on: UO-31 renal
[37] = tested on: MOLT-4 leukemia
[38] = tested on: DU-145 prostate
[39] = tested on: SK-OV-3 ovarian
[40] = tested on: RXF 393 renal
[41] = tested on: HOP-92 NSCLC
[42] = tested on: OVCAR-5 ovarian
[43] = tested on: SN12C renal
[44] = tested on: A549 NSCLC
[45] = tested on: MCF7 breast
[46] = tested on: A498 renal
[47] = tested on: SF-268 CNS
[48] = tested on: SW-620 colon
[49] = tested on: NCI-H522 lung
[50] = tested on: SR leukemia
[51] = tested on: MDA-MB-468 breast
[52] = tested on: OVCAR-4 ovarian
[53] = tested on: HOP-62 NSCLC
[54] = tested on: SNB-19 CNS
[55] = tested on: MALME-3M melanoma
[56] = tested on: HS 578T breast
[57] = tested on: RPMI-8226 leukemia
[58] = tested on: UACC-257 melanoma
[59] = tested on: HL-60(TB) leukemia

Fc1ccc(F)c(CNc2nc(SCCN3CCOCC3)nc3c2cnn3CC(Cl)c2ccc(Br)cc2)c1 (configuration not stated) was tested, and the GI50 [1] was 1.77 µM, the TGI [1] was > 100 µM and the GI50 [2] was 2.63 µM. The TGI [2] was 62.6 µM, the GI50 [3] was 3.52 µM and the TGI [3] was > 100 µM. It also gave a GI50 [4] of 2.5 µM, a TGI [4] of 7.65 µM and a GI50 [5] of 2.61 µM. For the same molecule, the TGI [5] was > 100 µM, the GI50 [6] was 1.14 µM and the TGI [6] was 2.68 µM. For the same molecule, the GI50 [7] was 2.91 µM, the TGI [7] was 10.4 µM and the GI50 [8] was 3.9 µM. For the same molecule, the TGI [8] was > 100 µM, the GI50 [9] was 2.28 µM and the TGI [9] was > 100 µM. The GI50 [10] was 3.77 µM, the TGI [10] was > 100 µM and the GI50 [11] was 1.75 µM. The TGI [11] was 3.73 µM, the GI50 [12] was 3.65 µM and the TGI [12] was > 100 µM. The GI50 [13] was 1.62 µM, the TGI [13] was 3.01 µM and the GI50 [14] was 3.66 µM. The TGI [14] was > 100 µM, the GI50 [15] was 4.13 µM and the TGI [15] was > 100 µM. The GI50 [16] was 1.76 µM, the TGI [16] was 6.15 µM and the GI50 [17] was 3.77 µM. For the same molecule, the TGI [17] was > 100 µM, the GI50 [18] was 2.81 µM and the TGI [18] was 38.1 µM. For the same molecule, the GI50 [19] was 2.62 µM, the TGI [19] was 17.3 µM and the GI50 [20] was 3.57 µM. The TGI [20] was > 100 µM, the GI50 [21] was 3.72 µM and the TGI [21] was > 100 µM. The GI50 [22] was 3.11 µM, the TGI [22] was 18.6 µM and the GI50 [23] was 4.91 µM. For the same molecule, the TGI [23] was > 100 µM, the GI50 [24] was 5.03 µM and the TGI [24] was > 100 µM. For the same molecule, the GI50 [25] was 2.84 µM, the TGI [25] was > 100 µM and the GI50 [26] was 2.04 µM. For the same molecule, the TGI [26] was 5.04 µM, the GI50 [27] was 3.34 µM and the TGI [27] was > 100 µM. For the same molecule, the GI50 [28] was 2.81 µM, the TGI [28] was > 100 µM and the GI50 [29] was 2.38 µM. The TGI [29] was 5.96 µM, the GI50 [30] was 2.13 µM and the TGI [30] was 4.98 µM. The GI50 [31] was 3.13 µM, the TGI [31] was > 100 µM and the GI50 [32] was 5.71 µM. The TGI [32] was > 100 µM, the GI50 [33] was 3.21 µM and the TGI [33] was > 100 µM. It also gave a GI50 [34] of 2.63 µM, a TGI [34] of 8.3 µM and a GI50 [35] of 5.24 µM. The TGI [35] was > 100 µM, the GI50 [36] was 2.87 µM and the TGI [36] was > 100 µM. The GI50 [37] was 2.58 µM, the TGI [37] was > 100 µM and the GI50 [38] was 6.12 µM. For the same molecule, the TGI [38] was > 100 µM, the GI50 [39] was 8.7 µM and the TGI [39] was > 100 µM. For the same molecule, the GI50 [40] was 1.41 µM, the TGI [40] was 4.83 µM and the GI50 [41] was 3.03 µM. The TGI [41] was 23.9 µM, the GI50 [42] was 4.59 µM and the TGI [42] was > 100 µM. For the same molecule, the GI50 [43] was 3.22 µM, the TGI [43] was > 100 µM and the GI50 [44] was 3.09 µM. The TGI [44] was > 100 µM, the GI50 [45] was 2.5 µM and the TGI [45] was 8.54 µM. The GI50 [46] was 4.2 µM, the TGI [46] was > 100 µM and the GI50 [47] was 4.27 µM. The TGI [47] was > 100 µM, the GI50 [48] was 2.78 µM and the TGI [48] was 13.8 µM. The GI50 [49] was 3.51 µM, the TGI [49] was 91.3 µM and the GI50 [50] was 3.63 µM. For the same molecule, the TGI [50] was > 100 µM, the GI50 [51] was 1.96 µM and the TGI [51] was 4.88 µM. The GI50 [52] was 3.22 µM, the TGI [52] was > 100 µM and the GI50 [53] was 6.31 µM. For the same molecule, the TGI [53] was > 100 µM, the GI50 [54] was 5.34 µM and the TGI [54] was > 100 µM. The GI50 [55] was 1.89 µM, the TGI [55] was 5.15 µM and the GI50 [56] was 2.6 µM. The TGI [56] was > 100 µM, the GI50 [57] was 2.66 µM and the TGI [57] was > 100 µM. The GI50 [58] was 3.25 µM and the TGI [58] was 65 µM.

Molecule CC(=O)Nc1ccc(-c2cn(-c3cccc(C(=O)Nc4cc(C(F)(F)F)cc(C(F)(F)F)c4)c3)nn2)cn1 has a GI50 [1] of 0.154 µM, a TGI [1] of 10.5 µM and a GI50 [2] of 3.4 µM. The TGI [2] was 10.8 µM, the GI50 [3] was 4.2 µM and the TGI [3] was 15.2 µM. The GI50 [4] was 4.53 µM, the TGI [4] was 16.3 µM and the GI50 [5] was 5.78 µM. The TGI [5] was 27.7 µM, the GI50 [6] was 3.24 µM and the TGI [6] was 12.9 µM. For the same molecule, the GI50 [7] was 11.7 µM, the TGI [7] was 28.1 µM and the GI50 [8] was 11.2 µM. The TGI [8] was 36.1 µM, the GI50 [9] was 5.84 µM and the TGI [9] was 28.4 µM. It also gave a GI50 [10] of 3.85 µM, a TGI [10] of 13.5 µM and a GI50 [11] of 13.5 µM. The TGI [11] was 29.8 µM, the GI50 [12] was 11.1 µM and the TGI [12] was 37.5 µM. It also gave a GI50 [13] of 16.4 µM, a TGI [13] of 33.2 µM and a GI50 [14] of 17.3 µM. It also gave a TGI [14] of 45.1 µM, a GI50 [15] of 14 µM and a TGI [15] of 34.3 µM. The GI50 [16] was 10.9 µM, the TGI [16] was 33.1 µM and the GI50 [17] was 8.26 µM. For the same molecule, the TGI [17] was 24.4 µM, the GI50 [18] was 19.1 µM and the TGI [18] was 91.6 µM. For the same molecule, the GI50 [19] was 3.41 µM, the TGI [19] was 12 µM and the GI50 [20] was 10 µM. It also gave a TGI [20] of 24.8 µM, a GI50 [21] of 0.417 µM and a TGI [21] of 12.7 µM. The GI50 [22] was 7.51 µM, the TGI [22] was 25.1 µM and the GI50 [23] was 14.2 µM. For the same molecule, the TGI [23] was 33.5 µM, the GI50 [24] was 16.4 µM and the TGI [24] was 35.3 µM. It also gave a GI50 [25] of 12.9 µM, a TGI [25] of 29.3 µM and a GI50 [59] of 1.23 µM. For the same molecule, the TGI [59] was 10.9 µM, the GI50 [26] was 13.4 µM and the TGI [26] was 28.1 µM. The GI50 [27] was 14.2 µM, the TGI [27] was 37.3 µM and the GI50 [28] was 2.4 µM. It also gave a TGI [28] of 6.76 µM, a GI50 [29] of 3.37 µM and a TGI [29] of 8.51 µM. The GI50 [30] was 7.14 µM, the TGI [30] was 23.7 µM and the GI50 [32] was 7.7 µM. It also gave a TGI [32] of 21.2 µM, a GI50 [33] of 4.39 µM and a TGI [33] of 19.9 µM. For the same molecule, the GI50 [34] was 13.8 µM, the TGI [34] was 30.1 µM and the GI50 [35] was 26 µM. For the same molecule, the TGI [35] was 49.3 µM, the GI50 [36] was 19.5 µM and the TGI [36] was 37.2 µM. The GI50 [37] was 1.94 µM, the TGI [37] was 6.12 µM and the GI50 [38] was 10.4 µM. The TGI [38] was 29.5 µM, the GI50 [39] was 13.5 µM and the TGI [39] was 34.1 µM. The GI50 [40] was 11.2 µM, the TGI [40] was 26.4 µM and the GI50 [41] was 2.7 µM. The TGI [41] was 8.6 µM, the GI50 [42] was 18.7 µM and the TGI [42] was 38.9 µM. For the same molecule, the GI50 [43] was 11 µM, the TGI [43] was 28.1 µM and the GI50 [44] was 4.54 µM. The TGI [44] was 16.3 µM, the GI50 [45] was 4.68 µM and the TGI [45] was 21.8 µM. The GI50 [46] was 25.4 µM, the TGI [46] was 42.1 µM and the GI50 [47] was 21 µM. It also gave a TGI [47] of 64.7 µM, a GI50 [48] of 7.85 µM and a TGI [48] of 24.1 µM. The GI50 [49] was 12.3 µM, the TGI [49] was 30.8 µM and the GI50 [50] was 1.89 µM. The TGI [50] was 5.18 µM, the GI50 [51] was 3.46 µM and the TGI [51] was 16.2 µM. The GI50 [52] was 11.9 µM, the TGI [52] was 31.7 µM and the GI50 [53] was 8.56 µM. For the same molecule, the TGI [53] was 22.5 µM, the GI50 [54] was 19.9 µM and the TGI [54] was 50.2 µM. The GI50 [55] was 3.26 µM, the TGI [55] was 12.6 µM and the GI50 [56] was 6.17 µM. The TGI [56] was 48.9 µM, the GI50 [57] was 3.46 µM and the TGI [57] was 15 µM. The GI50 [58] was 12.9 µM and the TGI [58] was 36 µM.
